Experimental data taken from PubChem BioAssay (NCI).
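GI50 is the concentration that inhibits growth by half. At the TGI there is no net growth.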

How the values were obtained:
Assay in all cases: NCI-60 cell line screen, 384-well format
[1] = test system: BT-549 breast
[2] = test system: OVCAR-4 ovarian
[3] = test system: OVCAR-3 ovarian
[4] = test system: MCF7 breast
[5] = test system: M14 melanoma
[6] = test system: HOP-92 NSCLC
[7] = test system: SF-268 CNS
[8] = test system: UO-31 renal
[9] = test system: KM12 colon
[10] = test system: ACHN renal
[11] = test system: SF-295 CNS
[12] = test system: DU-145 prostate
[13] = test system: UACC-257 melanoma
[14] = test system: MDA-MB-435 melanoma
[15] = test system: HCT-116 colon
[16] = test system: SK-MEL-2 melanoma
[17] = test system: NCI-H460 NSCLC
[18] = test system: A498 renal
[19] = test system: HS 578T breast
[20] = test system: SK-OV-3 ovarian
[21] = test system: HL-60(TB) leukemia
[22] = test system: MALME-3M melanoma
[23] = test system: NCI-H226 lung
[24] = test system: MOLT-4 leukemia
[25] = test system: OVCAR-8 ovarian
[26] = test system: U251 glioblastoma
[27] = test system: SW-620 colon
[28] = test system: MDA-MB-231 breast
[29] = test system: UACC-62 melanoma
[30] = test system: 786-0 renal
[31] = test system: RXF 393 renal
[32] = test system: SF-539 CNS
[33] = test system: SNB-75 CNS
[34] = test system: PC-3 prostate
[35] = test system: NCI-H23 lung
[36] = test system: NCI-H522 lung
[37] = test system: SNB-19 CNS
[38] = test system: SK-MEL-28 melanoma
[39] = test system: COLO 205 colon
[40] = test system: TK-10 renal
[41] = test system: NCI-H322M lung
[42] = test system: K-562 leukemia
[43] = test system: T-47D breast
[44] = test system: A549 NSCLC
[45] = test system: HT29 colon
[46] = test system: SN12C renal
[47] = test system: HCT-15 colon
[48] = test system: CAKI-1 renal
[49] = test system: EKVX NSCLC
[50] = test system: HOP-62 NSCLC
[51] = test system: IGROV1 ovarian
[52] = test system: OVCAR-5 ovarian
[53] = test system: SK-MEL-5 melanoma
[54] = test system: SR leukemia
[55] = test system: MDA-MB-468 breast

`Cc1ccc(C(=O)Nc2cccc(C(F)(F)F)c2)cc1Nc1nc(-c2cccnc2)nc2c1cnn2C` was tested, and the GI50 [1] was 1670 nM, the TGI [1] was 3660 nM and the GI50 [2] was 1590 nM. For the same compound, the TGI [2] was 4050 nM, the GI50 [3] was 1490 nM and the TGI [3] was 3210 nM. It also gave a GI50 [4] of 1310 nM, a TGI [4] of 2620 nM and a GI50 [5] of 291 nM. For the same compound, the TGI [5] was 1410 nM, the GI50 [6] was 1580 nM and the TGI [6] was 5850 nM. The GI50 [7] was 1700 nM, the TGI [7] was 4210 nM and the GI50 [8] was 605 nM. The TGI [8] was 2090 nM, the GI50 [9] was 1490 nM and the TGI [9] was 2980 nM. The GI50 [10] was 1030 nM, the TGI [10] was 2510 nM and the GI50 [11] was 1720 nM. It also gave a TGI [11] of 3150 nM, a GI50 [12] of 1710 nM and a TGI [12] of 4340 nM. It also gave a GI50 [13] of 378 nM, a TGI [13] of 1890 nM and a GI50 [14] of 487 nM. For the same compound, the TGI [14] was 2390 nM, the GI50 [15] was 372 nM and the TGI [15] was 1880 nM. The GI50 [16] was 240 nM, the TGI [16] was 959 nM and the GI50 [17] was 383 nM. For the same compound, the TGI [17] was 1750 nM, the GI50 [18] was 1210 nM and the TGI [18] was 2950 nM. It also gave a GI50 [19] of 1060 nM, a TGI [19] of 2310 nM and a GI50 [20] of 1880 nM. It also gave a TGI [20] of 3940 nM, a GI50 [21] of 80.6 nM and a TGI [21] of 1280 nM. For the same compound, the GI50 [22] was 222 nM, the TGI [22] was 757 nM and the GI50 [23] was 774 nM. For the same compound, the TGI [23] was 2120 nM, the GI50 [24] was 593 nM and the TGI [24] was 1890 nM. The GI50 [25] was 1880 nM, the TGI [25] was 4790 nM and the GI50 [26] was 1630 nM. It also gave a TGI [26] of 3240 nM, a GI50 [27] of 955 nM and a TGI [27] of 2260 nM. The GI50 [28] was 181 nM, the TGI [28] was 3870 nM and the GI50 [29] was 309 nM. For the same compound, the TGI [29] was 1510 nM, the GI50 [30] was 1120 nM and the TGI [30] was 2410 nM. For the same compound, the GI50 [31] was 137 nM, the TGI [31] was 1110 nM and the GI50 [32] was 677 nM. It also gave a TGI [32] of 2060 nM, a GI50 [33] of 1960 nM and a TGI [33] of 4280 nM. The GI50 [34] was 1820 nM, the TGI [34] was 4550 nM and the GI50 [35] was 248 nM. The TGI [35] was 1900 nM, the GI50 [36] was 1380 nM and the TGI [36] was 2720 nM. For the same compound, the GI50 [37] was 3540 nM, the TGI [37] was 13300 nM and the GI50 [38] was 319 nM. For the same compound, the TGI [38] was 1840 nM, the GI50 [39] was 522 nM and the TGI [39] was 2220 nM. The GI50 [40] was 1370 nM, the TGI [40] was 3130 nM and the GI50 [41] was 2060 nM. It also gave a TGI [41] of 4890 nM, a GI50 [42] of 12.2 nM and a TGI [42] of 29 nM. For the same compound, the GI50 [43] was 1290 nM, the TGI [43] was 2700 nM and the GI50 [44] was 1380 nM. The TGI [44] was 2960 nM, the GI50 [45] was 341 nM and the TGI [45] was 1330 nM. For the same compound, the GI50 [46] was 2150 nM, the TGI [46] was 10300 nM and the GI50 [47] was 882 nM. It also gave a TGI [47] of 2160 nM, a GI50 [48] of 972 nM and a TGI [48] of 2150 nM. For the same compound, the GI50 [49] was 1150 nM, the TGI [49] was 3080 nM and the GI50 [50] was 1410 nM. It also gave a TGI [50] of 3270 nM, a GI50 [51] of 782 nM and a TGI [51] of 2600 nM. It also gave a GI50 [52] of 1410 nM, a TGI [52] of 8450 nM and a GI50 [53] of 466 nM. It also gave a TGI [53] of 1820 nM, a GI50 [54] of 390 nM and a TGI [54] of 1320 nM. For the same compound, the GI50 [55] was 1080 nM and the TGI [55] was 2310 nM.
